Reference: the NIST ThermoML archive (doi:10.1021/je060271a)
Numbers after ± are expanded uncertainties.

Conditions: 323.17 K, Liquid, Vibrating tube method

CCCCCC(=O)OCC(COC(=O)CCCCC)(COC(=O)CCCCC)COC(=O)CCCCC [pentaerythritol tetrahexanoate]
Conditions | mass density [kg/m3]
15845 kPa | 983.4 ± 1.2
15865 kPa | 983.5 ± 1.2
15889 kPa | 983.4 ± 1.2
15909 kPa | 983.5 ± 1.2
15932 kPa | 983.5 ± 1.2
15952 kPa | 983.3 ± 1.2
15976 kPa | 983.5 ± 1.2
16001 kPa | 983.4 ± 1.2
16021 kPa | 983.6 ± 1.2
16045 kPa | 983.5 ± 1.2
16069 kPa | 983.6 ± 1.2
16089 kPa | 983.6 ± 1.2
16114 kPa | 983.7 ± 1.2
16135 kPa | 983.7 ± 1.2
16160 kPa | 983.6 ± 1.2
16308 kPa | 983.8 ± 1.2
16329 kPa | 983.7 ± 1.2
16337 kPa | 983.7 ± 1.2
16338 kPa | 983.8 ± 1.2
16340 kPa | 983.8 ± 1.2
19154 kPa | 985.4 ± 1.2
19182 kPa | 985.6 ± 1.2
19210 kPa | 985.5 ± 1.2
19238 kPa | 985.5 ± 1.2
19267 kPa | 985.7 ± 1.2
19296 kPa | 985.6 ± 1.2
19320 kPa | 985.7 ± 1.2
19350 kPa | 985.6 ± 1.2
20368 kPa | 986.3 ± 1.2
20425 kPa | 986.4 ± 1.2
22257 kPa | 987.5 ± 1.2
22284 kPa | 987.5 ± 1.2
22311 kPa | 987.5 ± 1.2
22338 kPa | 987.6 ± 1.2
22361 kPa | 987.6 ± 1.2
22388 kPa | 987.5 ± 1.2
22416 kPa | 987.7 ± 1.2
22443 kPa | 987.6 ± 1.2
22466 kPa | 987.7 ± 1.2
22493 kPa | 987.7 ± 1.2
22520 kPa | 987.5 ± 1.2
25533 kPa | 989.4 ± 1.2
25562 kPa | 989.5 ± 1.2
25592 kPa | 989.5 ± 1.2
25621 kPa | 989.5 ± 1.2
25651 kPa | 989.4 ± 1.2
25676 kPa | 989.5 ± 1.2
25737 kPa | 989.6 ± 1.2
25767 kPa | 989.6 ± 1.2
25792 kPa | 989.7 ± 1.2
25823 kPa | 989.7 ± 1.2
25853 kPa | 989.7 ± 1.2
25884 kPa | 989.6 ± 1.2
25909 kPa | 989.8 ± 1.2
25940 kPa | 989.8 ± 1.2
25972 kPa | 989.8 ± 1.2
26003 kPa | 989.7 ± 1.2
26033 kPa | 989.7 ± 1.2
26762 kPa | 990.3 ± 1.2
26791 kPa | 990.3 ± 1.2
26815 kPa | 990.1 ± 1.2
26845 kPa | 990.3 ± 1.2
26872 kPa | 990.3 ± 1.2
26901 kPa | 990.4 ± 1.2
26930 kPa | 990.4 ± 1.2
26959 kPa | 990.3 ± 1.2
26984 kPa | 990.3 ± 1.2
27013 kPa | 990.3 ± 1.2
27043 kPa | 990.5 ± 1.2
27073 kPa | 990.4 ± 1.2
27102 kPa | 990.4 ± 1.2
27127 kPa | 990.4 ± 1.2
27157 kPa | 990.4 ± 1.2
